Results: ChEMBL document CHEMBL4431301, “The Medicinal Chemistry of Dengue Virus” (J Med Chem, 2016)

Experiments:
[1] = system: dengue virus type 1; test: Antiviral activity against Dengue virus 1 Western Pacific 74 infected in african green monkey Vero cells assessed as reduction in viral replication after 48 hrs by luciferase reporter gene assay; assay type: functional, organism-based; conditions: Western Pacific 74, Vero
[2] = system: West Nile virus; test: Antiviral activity against West Nile virus 3356 infected in african green monkey Vero cells assessed as reduction in viral titer after 42 hrs by plaque assay; assay type: functional, organism-based; conditions: West Nile virus, 3356, Vero
[3] = system: dengue virus type 1; test: Antiviral activity against Dengue virus 1 infected in human PBMC assessed as reduction in viral titer after 48 hrs preincubated with cells prior to ADE-mediated viral infection by plaque assay; assay type: functional, organism-based
[4] = Inhibition of biotinylated Imp-alpha/beta1 (unknown origin) binding to Dengue virus NS5 by alpha screen assay; design: species or system Homo sapiens
[5] = system: dengue virus type 1; test: Antiviral activity against Dengue virus 1 infected in human Huh7 cells assessed as reduction in viral replication after 48 hrs by plaque assay; assay type: functional, organism-based; conditions: Huh-7, 48 h
[6] = system: dengue virus type 2; test: Antiviral activity against Dengue virus 2 infected in human Huh7 cells assessed as reduction in viral replication after 48 hrs by plaque assay; assay type: functional, organism-based; conditions: Huh-7, 48 h
[7] = system: dengue virus type 3; test: Antiviral activity against Dengue virus 3 infected in human Huh7 cells assessed as reduction in viral replication after 48 hrs by plaque assay; assay type: functional, organism-based; conditions: Huh-7, 48 h
[8] = system: dengue virus type 4; test: Antiviral activity against Dengue virus 4 infected in human Huh7 cells assessed as reduction in viral replication after 48 hrs by plaque assay; assay type: functional, organism-based; conditions: Huh-7, 48 h
[9] = system: dengue virus type 2; test: Antiviral activity against Dengue virus 2 infected in BHK-pD2hRucPac cells assessed as reduction in virus replication after 72 hrs by renilla luciferase reporter gene assay; assay type: functional, organism-based
[10] = Inhibition of Dengue virus 2 16681 NS5 guanylation expressed in Escherichia coliBL21(DE3) cells after 4 hrs by coomassie blue staining based SDS-PAGE method; design: species or system dengue virus type 2
[11] = target: T1, Genome polyprotein (dengue virus type 2, UniProt P29990); test: Mixed noncompetitive inhibition of the Dengue virus 2 NS2B-NS3 protease expressed in Escherichia coli using Boc-GRR-AMC as substrate assessed as enzyme-inhibitor complex after 30 mins by spectrofluorometry
[12] = target: T1, Genome polyprotein; test: Mixed noncompetitive inhibition of the Dengue virus 2 NS2B-NS3 protease expressed in Escherichia coli using Boc-GRR-AMC as substrate assessed as enzyme-substrate-inhibitor complex after 30 mins by Michaelis-Menten plot analysis
[13] = Oral bioavailability in Balb/c mouse at 200 mg/kg after 5 mins to 48 hrs by LC-MS/MS analysis; assay type: ADME, organism-based; conditions: in vivo
[14] = system: dengue virus type 2; test: Antiviral activity against Dengue virus 2 NGC infected in african green monkey Vero cells assessed as reduction in viral titer preincubated for 1 hr followed by viral infection measured after 5 days by plaque assay; assay type: functional, organism-based
[15] = Cytotoxicity against african green monkey Vero cells; assay type: cell-based; conditions: chlorocebus sabaeus
[16] = system: dengue virus type 1; test: Antiviral activity against Dengue virus 1 2402 infected in BHK21 cells after 48 hrs by CFI assay; assay type: functional, organism-based; conditions: Dengue virus, 2402, BHK-21, 48 h
[17] = system: dengue virus type 2; test: Antiviral activity against Dengue virus 2 3295 infected in BHK21 cells after 48 hrs by CFI assay; assay type: functional, organism-based; conditions: Dengue virus, 3295, BHK-21, 48 h
[18] = system: dengue virus type 4; test: Antiviral activity against Dengue virus 4 2270 infected in BHK21 cells after 48 hrs by CFI assay; assay type: functional, organism-based; conditions: Dengue virus, 2270, BHK-21, 48 h
[19] = system: dengue virus type 3; test: Antiviral activity against Dengue virus 3 863 infected in BHK21 cells after 48 hrs by CFI assay; assay type: functional, organism-based; conditions: Dengue virus, 863, BHK-21, 48 h
[20] = system: dengue virus type 2; test: Antiviral activity against Dengue virus 2 infected in BHK21 cells assessed as reduction in virus replication after 24 hrs by renilla luciferase reporter gene assay; assay type: functional, organism-based; conditions: BHK-21, 24 h
[21] = system: dengue virus type 2; test: Antiviral activity against Dengue virus 2 infected in BHK21 cells assessed after 3 to 5 days by crystal violet staining based plaque assay; assay type: functional, organism-based; conditions: BHK-21
[22] = Cytotoxicity against BHK21 cells after 24 hrs by CellTiter-Glo luminescent assay; assay type: cell-based, Mesocricetus auratus, BHK-21; conditions: hamster
[23] = system: dengue virus type 2; test: Antiviral activity against Dengue virus 2 S221 infected in ADE AG129 mouse model assessed as protection against viral infection at 20 to 100 mg/kg, po administered thrice daily for 7 days starting 1 hr prior to viral challenge measured for 10 days; assay type: functional
[24] = system: dengue virus type 2; test: Antiviral activity against Dengue virus 2 NGC infected in african green monkey Vero cells assessed as reduction in viral titer preincubated for 1 hr followed by viral infection measured after 5 days by immunoplaque assay; assay type: functional, organism-based
[25] = system: dengue virus type 4; test: Antiviral activity against Dengue virus 4 infected in african green monkey Vero E6 cells assessed as inhibition of viral yield after 72 hrs by flow cytometry; assay type: functional, organism-based; conditions: Vero C1008, 72 h
[26] = system: dengue virus type 1; test: Antiviral activity against Dengue virus 1 infected in african green monkey Vero E6 cells assessed as inhibition of viral yield after 72 hrs by flow cytometry; assay type: functional, organism-based; conditions: Vero C1008, 72 h
[27] = system: dengue virus type 3; test: Antiviral activity against Dengue virus 3 infected in african green monkey Vero E6 cells assessed as inhibition of viral yield after 72 hrs by flow cytometry; assay type: functional, organism-based; conditions: Vero C1008, 72 h
[28] = Drug uptake in C57BL/6 mouse kidney infected with Ebola virus at 3 mg/kg, iv administered 2 hrs prior to viral infection measured on day 2 and 5 post viral infection by mass spectrometry; assay type: ADME, organism-based; conditions: read-out: Drug uptake
[29] = Drug uptake in C57BL/6 mouse spleen infected with Ebola virus at 3 mg/kg, iv administered 2 hrs prior to viral infection measured on day 2 and 5 post viral infection by mass spectrometry; assay type: ADME, organism-based; conditions: read-out: Drug uptake
[30] = system: dengue virus type 2; test: Antiviral activity against Dengue virus 2 infected in african green monkey Vero E6 cells assessed as inhibition of viral yield after 72 hrs by flow cytometry; assay type: functional, organism-based; conditions: Vero C1008, 72 h

T1 sequence (P29990 1346-1475 limits assumed): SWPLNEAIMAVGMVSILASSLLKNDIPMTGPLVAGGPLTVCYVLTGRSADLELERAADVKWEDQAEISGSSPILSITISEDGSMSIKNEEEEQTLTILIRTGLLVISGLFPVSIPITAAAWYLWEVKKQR
T1 sequence (P29990 1476-2093 limits assumed): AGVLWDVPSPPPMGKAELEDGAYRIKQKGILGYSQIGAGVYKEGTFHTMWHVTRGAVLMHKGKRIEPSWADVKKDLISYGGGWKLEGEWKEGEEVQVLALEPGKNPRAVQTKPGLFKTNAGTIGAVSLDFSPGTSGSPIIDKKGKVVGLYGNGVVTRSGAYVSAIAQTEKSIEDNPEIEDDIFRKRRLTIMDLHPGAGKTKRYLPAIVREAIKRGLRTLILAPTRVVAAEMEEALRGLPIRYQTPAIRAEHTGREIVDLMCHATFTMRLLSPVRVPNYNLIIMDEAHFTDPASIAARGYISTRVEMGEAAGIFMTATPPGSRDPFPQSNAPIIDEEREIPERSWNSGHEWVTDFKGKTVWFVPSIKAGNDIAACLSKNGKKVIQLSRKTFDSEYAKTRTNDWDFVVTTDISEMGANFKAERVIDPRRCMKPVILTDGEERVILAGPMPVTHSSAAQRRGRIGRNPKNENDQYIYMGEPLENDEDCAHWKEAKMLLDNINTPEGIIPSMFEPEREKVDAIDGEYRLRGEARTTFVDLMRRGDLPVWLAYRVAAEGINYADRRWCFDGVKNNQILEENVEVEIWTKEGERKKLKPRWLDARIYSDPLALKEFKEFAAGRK

O=C(c1ccccc1)N1N=C(c2cccs2)CC1c1ccc(Cl)cc1 (stereo not given) gave an EC50 [1] of 17000 nM and an EC50 [2] of 28000 nM.

In the case of CC1=C(/C=C/C(C)=C/C=C/C(C)=C/C(=O)Nc2ccc(O)cc2)C(C)(C)CCC1 [FENRETINIDE], the EC50 [3] is reported as 800 to 2600 nM and the IC50 [4] is reported as 1000 to 1500 nM.

For CC(=O)O[C@H]1C[C@H](O[C@H]2[C@@H](O)C[C@H](O[C@H]3[C@@H](O)C[C@H](O[C@H]4CC[C@@]5(C)[C@H](CC[C@@H]6[C@@H]5C[C@@H](O)[C@]5(C)[C@@H](C7=CC(=O)OC7)CC[C@]65O)C4)O[C@@H]3C)O[C@@H]2C)O[C@H](C)[C@H]1O[C@@H]1O[C@H](CO)[C@@H](O)[C@H](O)[C@H]1O [LANATOSIDE C], the IC50 [5] was 500 to 1000 nM, the IC50 [6] was 500 to 1000 nM and the IC50 [7] was 500 to 1000 nM. It also gave an IC50 [8] of 500 to 1000 nM.

Molecule CC(C)(C)c1ccc(/C=C2\SC(=S)N(CCC(=O)O)C2=O)cc1 has an EC50 [9] of 30800 nM and an IC50 [10] of 7300 nM.

Work on O=C1Cc2ccc(F)cc2C[C@@H]1C1=Cc2ccc(F)cc2CC1 yielded a Ki [11] of 7000 nM and a Ki [12] of 15000 nM.

COCCCCCCCCCN1C[C@H](O)[C@@H](O)[C@H](O)[C@H]1CO showed a bioavailability [13] of 84%, an EC50 [14] of 17000 nM and a CC50 [15] greater than 500000 nM.

With CCCC(=O)O[C@H]1CN2CC[C@H](O)[C@@H]2[C@@H](O)[C@@H]1O [CELGOSIVIR] the EC50 [16] was 220 to 680 nM, the EC50 [17] was 200 nM and the EC50 [18] was 220 to 680 nM. For the same molecule, the EC50 [19] was 220 to 680 nM.

CCN(CC)Cc1cc(Nc2ccnc3cc(Cl)ccc23)ccc1O [AMODIAQUINE] showed an EC50 [20] of 7410 nM, an EC50 [21] of 1080 nM and a CC50 at 24 h [22] of 52100 nM.

Work on OC[C@@H]1[C@@H](O)[C@H](O)[C@@H](O)CN1CCCCCCCCC1CCCO1 (stereo not given in full) yielded an Activity [23] of 100% and an EC50 [24] of 21700 nM.

Cc1cc(NCCCN(C)C)c2ccc3c(ccc4c(NCCCN(C)C)cc(C)nc43)c2n1 gave an EC50 [25] of 400 to 900 nM, an EC50 [26] of 400 to 900 nM and an EC50 [27] of 400 to 900 nM. It also gave a concentration at 2 h [28] of 43100 ng/g, a concentration at 2 h [29] of 19500 ng/g and an EC50 [30] of 400 to 900 nM.
